# From ChEMBL document CHEMBL4007389, “Discovery and evaluation of inhibitors to the immunosuppressive enzyme indoleamine 2,3-dioxygenase 1 (IDO1): Probing the active site-inhibitor interactions” (Eur J Med Chem, 2017)
# Legend:
# [1] = molecular target: T1, Indoleamine 2,3-dioxygenase 1 (Homo sapiens, UniProt P14902); assay: Inhibition of recombinant human IDO1 expressed in bacterial expression system using L-Tryptophan as substrate after 25 mins in absence of GSH and presence of tween20 by fluorescence assay
# Target sequence in this assay (P14902 whole entry): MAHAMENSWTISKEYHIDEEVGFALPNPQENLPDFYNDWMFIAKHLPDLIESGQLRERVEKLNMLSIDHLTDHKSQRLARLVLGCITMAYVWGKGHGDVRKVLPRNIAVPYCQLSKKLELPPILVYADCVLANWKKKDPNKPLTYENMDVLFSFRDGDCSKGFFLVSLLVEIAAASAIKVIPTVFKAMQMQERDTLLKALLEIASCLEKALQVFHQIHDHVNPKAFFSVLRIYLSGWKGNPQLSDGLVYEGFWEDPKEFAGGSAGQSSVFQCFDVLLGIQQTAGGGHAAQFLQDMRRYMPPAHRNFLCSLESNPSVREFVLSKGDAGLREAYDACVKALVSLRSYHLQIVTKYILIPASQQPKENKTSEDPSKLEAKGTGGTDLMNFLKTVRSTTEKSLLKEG
# [2] = molecular target: Indoleamine 2,3-dioxygenase 1 (Homo sapiens, UniProt P14902, S167A)
# Indoleamine 2,3-dioxygenase 1 (Homo sapiens, UniProt P14902, S167A), sequence (P14902 whole entry S167A): as the sequence (P14902 whole entry) above, with S167A counted along it
# [3] = tested on: Indoleamine 2,3-dioxygenase 1 (Homo sapiens), P14902 [S167A]; assay: Inhibition of recombinant human IDO1 S167A mutant expressed in Escherichia coli SG13009(pREP4) at 20 uM using L-Tryptophan as substrate after 25 mins by fluorescence assay relative to control
# Indoleamine 2,3-dioxygenase 1 (Homo sapiens), P14902 [S167A], sequence (P14902 whole entry S167A): as the sequence (P14902 whole entry) above, with S167A counted along it
# Homo sapiens = organism: Homo sapiens; assay: Selectivity ratio of IC50 for recombinant human IDO1 S167A mutant expressed in Escherichia coli SG13009(pREP4) to IC50 for recombinant human IDO1 expressed in bacterial expression system
# [4] = tested on: Indoleamine 2,3-dioxygenase 1 (Homo sapiens), P14902 [C129A]; assay: Inhibition of recombinant human IDO1 C129A mutant expressed in Escherichia coli SG13009(pREP4) at 20 uM using L-Tryptophan as substrate after 25 mins by fluorescence assay relative to control
# Indoleamine 2,3-dioxygenase 1 (Homo sapiens), P14902 [C129A], sequence (P14902 whole entry C129A): as the sequence (P14902 whole entry) above, with C129A counted along it
# [5] = molecular target: Indoleamine 2,3-dioxygenase 1 (Homo sapiens, UniProt P14902, C129A); assay: Inhibition of recombinant human IDO1 C129A mutant expressed in Escherichia coli SG13009(pREP4) using L-Tryptophan as substrate after 25 mins by fluorescence assay
# Indoleamine 2,3-dioxygenase 1 (Homo sapiens, UniProt P14902, C129A), sequence (P14902 whole entry C129A): as the sequence (P14902 whole entry) above, with C129A counted along it
# [6] = Cytotoxicity against mouse LLTC cells assessed as reduction in cell viability after 24 hrs by MTT assay; type: cell-based; conditions: read-out: LC50
# [7] = molecular target: T1, Indoleamine 2,3-dioxygenase 1; assay: Inhibition of full length recombinant human His-tagged IDO1 expressed in mouse LLTC cells using L-tryptophan as substrate after 24 hrs; type: cell-based
# Target sequence in this assay (P14902 whole entry): as the sequence (P14902 whole entry) above
# [8] = tested on: Indoleamine 2,3-dioxygenase 1 (Homo sapiens), P14902 [S167A]; assay: Inhibition of recombinant human IDO1 S167A mutant expressed in Escherichia coli SG13009(pREP4) at 400 uM using L-Tryptophan as substrate after 25 mins by fluorescence assay relative to control
# [9] = molecular target: T1, Indoleamine 2,3-dioxygenase 1; conditions: 50 uM
# Target sequence in this assay (P14902 whole entry, looked up): as the sequence (P14902 whole entry) above
# [10] = molecular target: T1, Indoleamine 2,3-dioxygenase 1; assay: Inhibition of recombinant human IDO1 expressed in bacterial expression system using L-Tryptophan as substrate after 25 mins in absence of GSH and tween20 by fluorescence assay
# Target sequence in this assay (P14902 whole entry): as above
# [11] = molecular target: T1, Indoleamine 2,3-dioxygenase 1; assay: Inhibition of recombinant human IDO1 expressed in bacterial expression system using L-Tryptophan as substrate after 25 mins in presence of GSH and tween20 by fluorescence assay
# Target sequence in this assay (P14902 whole entry): as above
# [12] = molecular target: T1, Indoleamine 2,3-dioxygenase 1; assay: Inhibition of recombinant human IDO1 expressed in bacterial expression system at 100 uM using L-Tryptophan as substrate after 25 mins by fluorescence assay relative to control
# Target sequence in this assay (P14902 whole entry, looked up): as the sequence (P14902 whole entry) above
# [13] = molecular target: T1, Indoleamine 2,3-dioxygenase 1; assay: Inhibition of recombinant human IDO1 expressed in bacterial expression system at 350 uM using L-Tryptophan as substrate after 25 mins by fluorescence assay relative to control
# Target sequence in this assay (P14902 whole entry, looked up): as the sequence (P14902 whole entry) above
# [14] = molecular target: T1, Indoleamine 2,3-dioxygenase 1; assay: Inhibition of recombinant human IDO1 expressed in bacterial expression system at 250 uM using L-Tryptophan as substrate after 25 mins by fluorescence assay relative to control
# Target sequence in this assay (P14902 whole entry, looked up): as the sequence (P14902 whole entry) above
# [15] = molecular target: T1, Indoleamine 2,3-dioxygenase 1; assay: Inhibition of recombinant human IDO1 expressed in bacterial expression system at 400 uM using L-Tryptophan as substrate after 25 mins by fluorescence assay relative to control
# Target sequence in this assay (P14902 whole entry, looked up): as the sequence (P14902 whole entry) above
SMILES,IC50 [1],IC50 [2],Ratio IC50 (Homo sapiens),also measured
O=c1c(O)cccc2cc(O)c(O)c(O)c12 [PURPUROGALLIN],60 µM,1000 µM,16.7,inhibition [3]: -4%
c1ccc(NCCSc2nc3ccccc3s2)cc1,115 µM,–,–,inhibition [4]: 70.8%; IC50 [5]: 8.2 µM
Sc1ccc(Cl)cc1,7.9 µM,3.5 µM,0.5,CC50 at 24 h [6]: 35 µM; IC50 [7]: 9.2 µM
Oc1ccc(-c2nc3c4ccccc4c4ccccc4c3[nH]2)cc1,522 µM,–,> 2,inhibition [8]: 14%
Cc1ccc([S+]([O-])c2ccc([N+](=O)[O-])c3nonc23)cc1 (stereo not drawn),12 µM,0.66 µM,0.055,CC50 at 24 h [6]: 29 µM; inhibition [9]: > 75%; IC50 [10]: 14 µM; IC50 [11]: 2.1 µM; IC50 [7]: 15 µM
NC1=C(c2ccccc2)C(=O)c2ccccc21,–,–,–,inhibition [12]: 14%
Cn1c2ccccc2c2ccc3c(c21)C(=O)C=CC3=O,42.5 µM,1000 µM,23.5,inhibition [3]: -2%
COc1ccc(C2=Nc3ccccc3C2=O)cc1,–,–,–,inhibition [13]: 5%
CC(=O)OCCn1c2nc(=O)[nH]c(=O)c-2nc2cc(C)c(C)cc21,31.3 µM,1000 µM,32,inhibition [3]: -8%
Cc1cc(I)ccc1Nc1cc2no[n+]([O-])c2cc1C(=O)O,23 µM,–,> 44,inhibition [8]: 2%
CCn1c2ccccc2nc2cc3c(cc21)c(Cl)c(=O)c1ccccc13,42.5 µM,980 µM,23.1,inhibition [3]: 2%
O=[N+]([O-])c1cccc2nsnc12,320 µM,614 µM,2,–
O=[N+]([O-])c1ccc(Sc2ccc(F)cc2)c2nonc12,8.8 µM,17 µM,2,CC50 at 24 h [6]: > 50 µM; IC50 [7]: 4.6 µM
Nc1nonc1C(=NO)Nc1ccc(F)c(Cl)c1,–,–,–,CC50 at 24 h [6]: > 5 µM
Oc1cccc(-c2nc3c4ccccc4c4ccccc4c3[nH]2)c1,112 µM,173 µM,2,–
c1ccc(-c2nc3c4ccccc4c4ccccc4c3[nH]2)cc1,–,–,–,inhibition [14]: 8%
Cc1cccc2c1c1ccc3c(c1n2C)C(=O)C=CC3=O,35.6 µM,1000 µM,28.1,inhibition [3]: -5%
Cc1ccccc1-c1nc2ccccc2[nH]1,–,–,–,inhibition [15]: -2%
COC12C(COC(N)=O)C3=C(C(=O)C(C)=C(N)C3=O)N1CC1C2N1C (stereo not drawn),15.7 µM,1000 µM,63.6,inhibition [3]: -4%
c1ccc(-c2c[nH]cn2)cc1,–,–,–,CC50 at 24 h [6]: > 1150 µM
COc1c(NC(C)=O)c2ccccc2c2ccccc12,35.6 µM,1000 µM,28.1,inhibition [3]: -9%
CC1=NC(SCc2ccc(Cl)cc2Cl)=NC(=O)C1,–,–,–,inhibition [15]: -8%; CC50 at 24 h [6]: > 125 µM; IC50 [7]: 217 µM
CC(=O)NC1=C(c2ccccc2)C(=O)c2ccccc21,–,–,–,inhibition [12]: 14%
O=C1C(c2ccccc2)=Nc2ccccc21,–,–,–,inhibition [13]: 9%; CC50 at 24 h [6]: 220 µM; IC50 [7]: 114 µM
COc1ccc2c(c1)c1ccc3c(c1n2C)C(=O)C=CC3=O,25.5 µM,1000 µM,39.3,inhibition [3]: -5%
c1ccc2c(c1)Nc1ccncc1S2,422 µM,–,–,inhibition [4]: 38.8%; IC50 [5]: 31.6 µM
Cc1ccccc1-c1nc2c3ccccc3c3ccccc3c2[nH]1,512 µM,464 µM,1,–
COC(=O)c1cc(F)c2nonc2c1Nc1ccc(I)cc1F,–,–,–,inhibition [14]: 3%
Cc1cc(I)ccc1Nc1cc2nonc2cc1C(=O)O,41 µM,42 µM,1,–
